Assay results taken from US20250282820A1, “PEPTIDE COMPLEX HAVING TRKB BINDING ACTIVITY” (PEPTIDREAM INC, priority 2022, published 2025).
*1 amine or outer side, *2 acyl side, *3 side chain or, on linkers, in order; H or OH if unused. Where a SMILES comes first, the peptide text is derived from it. Bridges are numbered along the chain shown (N, C = ends). Roman numbers before positions name the chains, in order. [ ]: non-standard residue; d: D form. ξ: configuration not given here. X4 = NC(=O)C(CCCCNC(=O)CCOCCC(=O)[*:1])NC(=O)CCOCCOCCOCCOCCOCCCCCOCCOCCN[*:2]; X3 = CC(C)[C@H](CC(=O)[C@H](Cc1cccnc1)N[*:1])C(=O)[*:2]; PEG8 = NCCOCCOCCOCCOCCOCCOCCOCCOCCC(=O)O; 3Pal = N[C@@H](Cc1cccnc1)C(=O)O; X2 = O=C(CCOCCC(=O)[*:2])[*:1]; Thr(3ξ) = CC(O)[C@H](N)C(=O)O; PEG2 = NCCOCCOCCC(=O)O; ξC = NC(CS)C(=O)O

Assays:
Type in all cases: cell-based
TrkB = TrkB (Homo sapiens, UniProt Q16620); experiment: PathHunter eXpress TrkB Functional Assay (phosphorylation of TrkB); settings: maximum signal induced by BDNF = 100%; stimulation for 3 hours
Experimental: To evaluate the TrkB activation potency of the TrkB agonist peptide of the present invention, the phosphorylation of TrkB was examined. The PathHunter (registered trademark) eXpress TrkB Functional Assay kit (DiscoverX; cells, 96-well plate, medium, and detection reagents included) was used and the evaluation was performed according to the attached protocols. The frozen cells were thawed and suspended in the medium, then seeded into a 96-well plate at 10,000 cells per well and incubated for 48 hours. Thereafter, Recombinant Human BDNF Protein (R&D Systems) or a peptide was added, and after stimulation for 3 hours, a detection reagent was added. The reaction was performed while protected from the light at room temperature for 60 minutes, and luminescent signals were measured using a SpectraMax Paradigm Multi-Mode Microplate Reader (Molecular Devices). The obtained signals were analyzed with GraphPad Prism, and the activity (%) was calculated with the maximum value of the signals induced by BDNF as 100% and a signal with no stimulation as 0%.
The BDNF was evaluated at 8 points (0.006 nM to 100 nM) from 100 nM using 4-fold dilutions. The peptide was evaluated in the measurement ranges A to C shown below. • Measurement range A=6 points from 100 nM using 5-fold dilutions (0.032 nM to 100 nM) • Measurement range B=8 points from 100 nM using 4-fold dilutions (0.006104 nM to 100 nM) • Measurement range C=4 points from 10 nM using 10-fold dilutions (0.01 nM to 10 nM)

[1] = target: T1, TrkB (CellSensor TrkB-NFAT-bla CHO-K1 Cell) (Homo sapiens, UniProt Q16620); experiment: NFAT transcriptional reporter assay for TrkB agonist activity; settings: class = peptide concentration giving 50% or more activity; BDNF maximum signal = 100%, no stimulation = 0%; 5 hours culture
T1 construct: host or cells: CHO-K1 (CellSensor TrkB-NFAT-bla CHO-K1)
Experimental: To evaluate the TrkB activation potency of the TrkB agonist peptide of the present invention, transcriptional activity was examined using transcriptional reporters. The CellSensor (registered trademark) TrkB-NFAT-bla CHO-K1 Cell (Invitrogen) used in the AlphaLISA assay was cultured in the medium above. After the cells were detached using Accutase (Innovative Cell Technologies), the cells were suspended in an assay medium, wherein Blasticidin and Zeocin were removed, then seeded into a 96-well plate for adherent cultures at 12,500 cells per well and cultured overnight. Then, BDNF or a peptide was added thereto, and the cells were further cultured in a CO2 incubator for 5 hours. After the 96-well plate was removed from the incubator and brought to room temperature, a detection reagent (LiveBLAzer (registered trademark)-FRET B/G (CCF4-AM) Substrate Mixture) was added while protected from the light, and the 96-well plate was incubated while protected from the light in a moisture box with a lid for 2 hours. For signal detection, a EnVision 2104 Multilabel Plate Reader (PerkinElmer) was used, and the ratio of fluorescence emission value (460 nm/535 nm) was calculated. The obtained numerical values were analyzed with GraphPad Prism, and the activity (%) was calculated with the maximum value of the signals induced by BDNF as 100% and a signal with no stimulation as 0%. The peptide with 50% or more activity when 1 nM of the peptide was added was evaluated as A, the peptide with 50% or more activity when 10 nM of the peptide was added was evaluated as B, and the peptide with 50% or more activity when 100 nM of the peptide was added was evaluated as C. Those that were not evaluated were listed as not tested.
The BDNF was evaluated at 7 points (0.0024 nM to 10 nM) from 10 nM using 4-fold dilutions.
(§1) For dimer structures Nos. 1 to 3, the peptide was evaluated at 1 nM, 10 nM, and 100 nM, and, for other dimer structure numbers, the peptide was evaluated at 0.1 nM, 1 nM, and 10 nM. When creating the concentration dependence curve, the BDNF and the peptides were evaluated at 7 points (0.006 nM to 100 nM) from 25 nM using 4-fold dilutions.

[2] = target: T1, TrkB (CellSensor TrkB-NFAT-bla CHO-K1 Cell); experiment: pERK1/2 AlphaLISA assay (phosphorylation of ERK) for TrkB agonist activity; settings: class = peptide concentration giving 50% or more activity; BDNF maximum signal = 100%, no stimulation = 0%; 15 minutes of stimulation
Experimental: To evaluate the TrkB activation potency of the TrkB agonist peptide of the present invention, the phosphorylation of ERK was examined. CellSensor (registered trademark) TrkB-NFAT-bla CHO-K1 Cell (Invitrogen) was cultured in DMEM, high glucose, GlutaMAX (registered trademark) Supplement, and pyruvate (Thermo), comprising 10% FBS (Thermo) and 1× Non-essential amino acids (Thermo), 25 mM HEPES (Thermo), 50 ug/mL Gentamicin, 5 ug/mL Blasticidin (Thermo), and 200 ug/mL Zeocin (Thermo). After the cells were detached using Accutase (Innovative Cell Technologies), they were seeded into a 96-well plate for adherent cultures at 12,500 cells per well and cultured overnight. The next day, for starvation, the culture solution above was replaced with a nutrient starvation medium comprising 0.1% BSA (Sigma), wherein FBS, Blasticidin, and Zeocin were removed from the culture medium, and culturing was performed for 4 hours. Thereafter, Recombinant Human BDNF Protein (R&D Systems) or a peptide was added, and after 15 minutes of stimulation, cells were lysed in the Lysis Buffer provided with the AlphaLISA SureFire Ultra p-Erk1/2 (Thr202/Tyr204) assay kit (PerkinElmer). The assay was performed according to the kit protocol. The signals were detected using a SpectraMax Paradigm Multi-Mode Microplate Reader (Molecular Devices). The obtained signals were analyzed with GraphPad Prism, and the activity (%) was calculated with the maximum value of the signals induced by BDNF as 100% and a signal with no stimulation as 0%. The peptide with 50% or more activity when 1 nM of the peptide was added was evaluated as A, and the peptide with 50% or more activity when 10 nM of the peptide was added was evaluated as B.
The BDNF was evaluated at 8 points (0.0006 nM to 10 nM) from 10 nM using 4-fold dilutions.
as §1, with “8” for “7”, “100” for “25”

T1 sequence (Q16620 32-822): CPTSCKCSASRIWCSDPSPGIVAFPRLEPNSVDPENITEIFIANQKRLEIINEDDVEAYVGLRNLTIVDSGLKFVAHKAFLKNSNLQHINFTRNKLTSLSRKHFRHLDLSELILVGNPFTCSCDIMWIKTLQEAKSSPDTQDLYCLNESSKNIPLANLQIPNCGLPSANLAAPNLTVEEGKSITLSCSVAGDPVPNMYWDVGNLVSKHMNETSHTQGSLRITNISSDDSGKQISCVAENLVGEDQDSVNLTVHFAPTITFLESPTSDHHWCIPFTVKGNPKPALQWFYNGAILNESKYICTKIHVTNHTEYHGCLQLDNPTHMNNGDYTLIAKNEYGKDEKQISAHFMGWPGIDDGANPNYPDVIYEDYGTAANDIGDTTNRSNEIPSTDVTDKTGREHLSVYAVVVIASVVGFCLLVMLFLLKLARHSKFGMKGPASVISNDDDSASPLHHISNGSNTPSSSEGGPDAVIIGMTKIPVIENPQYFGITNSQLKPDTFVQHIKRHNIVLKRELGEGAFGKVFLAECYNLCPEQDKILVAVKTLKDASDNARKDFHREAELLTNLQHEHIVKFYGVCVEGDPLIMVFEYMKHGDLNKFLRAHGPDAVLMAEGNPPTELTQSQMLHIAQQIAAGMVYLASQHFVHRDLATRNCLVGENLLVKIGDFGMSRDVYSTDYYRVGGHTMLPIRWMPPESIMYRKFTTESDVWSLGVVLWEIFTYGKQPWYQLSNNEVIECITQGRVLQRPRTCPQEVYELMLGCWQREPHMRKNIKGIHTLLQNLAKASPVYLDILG
TrkB, sequence (Q16620 32-822): as above

SMILES | Emax (TrkB) [%] | NFAT Assay Results [1] | pERK (aLISA) Assay Results [2]
CC(C)[C@@H]1NC(=O)[C@H](Cc2cccnc2)NC(=O)[C@H](CCC(=O)O)NC(=O)[C@H](CO)NC(=O)[C@H](Cc2ccc(O)cc2)NC(=O)[C@H]([C@@H](C)O)NC(=O)[C@@H]2CCCN2C(=O)[C@H](Cc2c[nH]c3ccccc23)NC(=O)[C@H](Cc2cccnc2)NC(=O)[C@H](Cc2ccc(O)cc2)NC(=O)[C@@H]2CCCN2C(=O)[C@H](CO)NC(=O)[C@H](Cc2ccccc2)NC(=O)CSC[C@@H](C(=O)NCC(=O)NCCOCCOCCC(=O)N[C@@H](CCCCNC(=O)CCOCCC(=O)NCCCC[C@H](NC(=O)CCOCCOCCNC(=O)CNC(=O)[C@@H]2CSCC(=O)N[C@@H](Cc3ccccc3)C(=O)N[C@@H](CO)C(=O)N3CCC[C@H]3C(=O)N[C@@H](Cc3ccc(O)cc3)C(=O)N[C@@H](Cc3cccnc3)C(=O)N[C@@H](Cc3c[nH]c4ccccc34)C(=O)N3CCC[C@H]3C(=O)N[C@@H]([C@@H](C)O)C(=O)N[C@@H](Cc3ccc(O)cc3)C(=O)N[C@@H](CO)C(=O)N[C@@H](CCC(=O)O)C(=O)N[C@@H](Cc3cccnc3)C(=O)N[C@@H](C(C)C)C(=O)N[C@@H](CCC(=O)O)C(=O)N2)C(N)=O)C(N)=O)NC(=O)[C@H](CCC(=O)O)NC1=O [compound 51] (I: {CH2CO}-FSPY[3Pal]WPTYSE[3Pal]VECG[PEG2]K-NH2 / II: {CH2CO}-FSPY[3Pal]WPTYSE[3Pal]VECG[PEG2]K-NH2; linker I:18-II:18 via X2; thioether I:N-I:15, II:N-II:15) | 106 | A (The peptide with 50% or more activity when 1 nM of the peptide was added was evaluated as A) | A (The peptide with 50% or more activity when 1 nM of the peptide was added was evaluated as A)
CC(C)C[C@@H]1NC(=O)[C@H](CO)NC(=O)[C@H](Cc2ccc(O)cc2)NC(=O)[C@H]([C@@H](C)O)NC(=O)[C@@H]2CCCN2C(=O)[C@H](Cc2c[nH]c3ccccc23)NC(=O)[C@H](Cc2cccnc2)NC(=O)[C@H](Cc2ccc(O)cc2)NC(=O)[C@@H]2CCCN2C(=O)[C@H](CC(C)C)NC(=O)[C@H](Cc2ccccc2)NC(=O)CSC[C@@H](C(=O)NCC(=O)NCCOCCOCCOCCOCCOCCOCCOCCOCCC(=O)NCCCC[C@H](NC(=O)CCOCCOCCOCCOCCOCCOCCOCCOCCNC(=O)CNC(=O)[C@@H]2CSCC(=O)N[C@@H](Cc3ccccc3)C(=O)N[C@@H](CC(C)C)C(=O)N3CCC[C@H]3C(=O)N[C@@H](Cc3ccc(O)cc3)C(=O)N[C@@H](Cc3cccnc3)C(=O)N[C@@H](Cc3c[nH]c4ccccc34)C(=O)N3CCC[C@H]3C(=O)N[C@@H]([C@@H](C)O)C(=O)N[C@@H](Cc3ccc(O)cc3)C(=O)N[C@@H](CO)C(=O)N[C@@H](CC(C)C)C(=O)N[C@@H](Cc3cccnc3)C(=O)N[C@@H](C(C)C)C(=O)N[C@@H](Cc3c[nH]c4ccccc34)C(=O)N2)C(N)=O)NC(=O)[C@H](Cc2c[nH]c3ccccc23)NC(=O)[C@H](C(C)C)NC(=O)[C@H](Cc2cccnc2)NC1=O [Dimer Structure No. 2] (I: {CH2CO}-FLPY[3Pal]WPTYSL[3Pal]VWCG[PEG8]K-NH2 / II: {CH2CO}-FLPY[3Pal]WPTYSL[3Pal]VWCG[PEG8]; amide I:18-II:C; thioether I:N-I:15, II:N-II:15) |  | C (the peptide with 50% or more activity when 100 nM of the peptide was added was evaluated as C) | B (the peptide with 50% or more activity when 10 nM of the peptide was added was evaluated as B)
CC(=O)NCCCC[C@@H]1NC(=O)[C@H](CO)NC(=O)[C@H](Cc2ccc(O)cc2)NC(=O)[C@H]([C@@H](C)O)NC(=O)[C@@H]2CCCN2C(=O)[C@H](Cc2c[nH]c3ccccc23)NC(=O)[C@H](Cc2cccnc2)NC(=O)[C@H](Cc2ccc(O)cc2)NC(=O)[C@@H]2CCCN2C(=O)[C@H](CC(C)C)NC(=O)[C@H](Cc2ccccc2)NC(=O)CSCC(C(=O)NCC(=O)NCCOCCOCCOCCOCCOCCOCCOCCOCCC(=O)N[C@@H](CCCCNC(=O)CCOCCC(=O)NCCCCC(NC(=O)CCOCCOCCOCCOCCOCCCCCOCCOCCNC(=O)CNC(=O)C2CSCC(=O)N[C@@H](Cc3ccccc3)C(=O)N[C@@H](CC(C)C)C(=O)N3CCC[C@H]3C(=O)N[C@@H](Cc3ccc(O)cc3)C(=O)N[C@@H](Cc3cccnc3)C(=O)N[C@@H](Cc3c[nH]c4ccccc34)C(=O)N3CCC[C@H]3C(=O)N[C@@H](C(C)O)C(=O)N[C@@H](Cc3ccc(O)cc3)C(=O)N[C@@H](CO)C(=O)N[C@@H](CCCCNC(C)=O)C(=O)N[C@@H](Cc3cccnc3)C(=O)N[C@@H](C(C)C)C(=O)N[C@@H](CCC(=O)O)C(=O)N2)C(N)=O)C(N)=O)NC(=O)[C@H](CCC(=O)O)NC(=O)[C@H](C(C)C)CC(=O)[C@H](Cc2cccnc2)NC1=O (stereo partly shown) [Dimer Structure No. 40] (I: {CH2CO}-FLPY[3Pal]WPTYSK(Ac)[X3]E[ξC]G[PEG8]K-NH2 / II: {CH2CO}-FLPY[3Pal]WP[Thr(3ξ)]YSK(Ac)[3Pal]VE[ξC]G; linker I:17-II:C via X4; thioether I:N-I:14, II:N-II:15) |  | B (the peptide with 50% or more activity when 10 nM of the peptide was added was evaluated as B) | B (the peptide with 50% or more activity when 10 nM of the peptide was added was evaluated as B)
